Legend:
[1] = molecular target: T1, Dimer of Gag-Pol polyprotein [489-587] (Human immunodeficiency virus 1, UniProt P12497); test: Protease Inhibition Assay; details: pH 5.5; 22 °C
T1 construct: 489-587
Source text: In the presence of HIV-l protease, the substrate is rapidly cleaved into two parts. The biotinylated amino terminal fragment binds to the avidin Pandex beads while the FITC-containing carboxy1 terminal fragment is removed through the membrane.

[2] = molecular target: T2, Gag-Pol polyprotein [489-587] (Human immunodeficiency virus 1, UniProt P04585)
T2 construct: 489-587

SMILES	IC50 [1] [nM]	IC50 [2] [nM]
CC(C)(C)NC(=O)[C@@H]1C[C@@H]2SCC[C@@H]2CN1C[C@@H](O)[C@H](Cc1ccccc1)NC(=O)[C@@H](CS(=O)(=O)c1ccc2ccccc2c1)NC(=O)C(F)(F)F [(3aR,6S,7aS)-N-tert-butyl-5-[(2R,3S)-2-hydroxy-3-[(2S)-3-(naphthalene-2-sulfonyl)-2-(2,2,2-trifluoroacetamido)propanamido]-4-phenylbutyl]-octahydrothieno[3,2-c]pyridine-6-carboxamide]	< 0.2	< 0.2
CC(C)(C)NC(=O)[C@@H]1C[C@@H]2SCC[C@@H]2CN1C[C@@H](O)[C@H](Cc1ccccc1)NC(=O)[C@@H](CS(=O)(=O)c1ccc(F)cc1)NC(=O)C(F)(F)F [(3aR,6S,7aS)-N-tert-butyl-5-[(2R,3S)-3-[(2S)-3-[(4-fluorobenzene)sulfonyl]-2-(2,2,2-trifluoroacetamido)propanamido]-2-hydroxy-4-phenylbutyl]-octahydrothieno[3,2-c]pyridine-6-carboxamide]	< 0.2	< 0.2
CC(C)(C)NC(=O)[C@@H]1C[C@@H]2SCC[C@@H]2CN1C[C@@H](O)[C@H](Cc1ccccc1)NC(=O)[C@@H](CS(=O)(=O)c1ccc2ccccc2c1)NS(C)(=O)=O [(3aR,6S,7aS)-N-tert-butyl-5-[(2R,3S)-2-hydroxy-3-[(2S)-2-methanesulfonamido-3-(naphthalene-2-sulfonyl)propanamido]-4-phenylbutyl]-octahydrothieno[3,2-c]pyridine-6-carboxamide]	< 0.2	< 0.2
